Consider 12 molecules from PubChem BioAssay (NCI).

Several values for one entry are separate records, joined by “and”; a condition that tells them apart may be missing. Equal values may be shown once.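 In this assay, cells in 96-well plates receive the compound at five concentrations for 48 hours. Endpoints are linearly interpolated between the surrounding concentrations. The concentration for 50% growth inhibition is given as GI50. TGI: total growth inhibition.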

Assay in all cases: NCI tumour cell line growth inhibition, 48 h
The test system of test [1] is NCI-H460 lung.
For test [2], the system named is OVCAR-3 ovarian.
Test [3] concerns COLO 205 colon.
Test [4] relates to MDA-MB-231 breast.
Test [5] concerns NCI/ADR-RES ovarian.
Test [6] relates to A549 NSCLC.
The test system of test [7] is HL-60(TB) leukemia.
The subject of test [8] is UACC-257 melanoma.
In test [9] the test system is NCI-H226 lung.
The test system of test [10] is PC-3 prostate.

With `C#Cc1ccc(-n2c(/C=C/c3cc(OC)c(OC)c(OC)c3)nc3ncccc3c2=O)cc1`, the GI50 in [1] is 4.11 µM; in test [2] it was 2.33 µM; in [3], 3.19 µM; in test [4], 5.53 µM; in test [5], 3.61 µM; in [6], 5.65 µM. Moreover, the GI50 in test [7] was 3.84 µM; in test [8], 9.74 µM; in [9], 12.9 µM; in test [10], 3.96 µM. Further, the TGI is 25.3 µM in test [1]; 6.42 µM in test [2]; 11.9 µM in test [3]; greater than 100 µM in test [4]; 34.5 µM in test [5]; greater than 100 µM in test [6]. In addition, the TGI is 25.6 µM in [7], greater than 100 µM in test [8], greater than 100 µM in test [9] and greater than 100 µM in [10].

Take `CCOc1cccnc1/C=N/NC(N)=S`: the GI50 is 3.48 µM in [1]; 4.44 µM in [2]; 3.87 µM in test [3]; 3.27 µM in test [4]; 3.99 µM in test [5]; 3.34 µM in test [6]. Further, the GI50 in test [7] is 2.42 µM; in test [8], 3.99 µM; in test [9], 3.6 µM; in [10], 3.9 µM. For the same molecule, the TGI in [1], in [2], in test [3], in test [4], in [5] and in [6] was greater than 100 µM each time. For the same molecule, the TGI in test [7] was 6.16 µM; in [8] it was 39.1 µM; in [9], 83 µM; in test [10] it was greater than 100 µM.

`COc1cc(OC)cc(N2CCN(C(=O)Nc3nc4cc(F)ccc4nc3OC)CC2)c1`: the GI50 in [1] was 0.0323 µM and 0.0358 µM and 0.0339 µM; in test [2], 0.0232 µM and 0.0252 µM and 0.0219 µM; in [3], 0.0267 µM and 0.0321 µM and 0.0266 µM; in test [4], 0.0524 µM and 0.0976 µM and 0.0361 µM; in test [5], < 0.0148 µM and 0.0274 µM and 0.012 µM; in test [6], 0.0367 µM and 0.0449 µM and 0.0357 µM. Besides, the GI50 was 0.0226 µM and 0.0299 µM and 0.0261 µM in test [7]; 20.1 µM and 12.7 µM in test [8]; 0.197 µM and 0.0515 µM and 0.136 µM in test [9]; 0.116 µM and 0.0312 µM and 0.033 µM in [10]. The TGI in [1] is 25.3 µM and 14.9 µM; in test [3], 0.0831 µM and 0.123 µM and 0.0771 µM; in test [5] it was 45 µM and 28.8 µM; in test [6] it was greater than 100 µM; in test [8], 73.4 µM and 56.8 µM; in test [10], 40.7 µM and 22.9 µM.

With `COc1cc(C(=O)N/N=C/c2cccc([N+](=O)[O-])c2)cc(OC)c1OC`, the GI50 in [1] is 3.23 µM; in test [2], 2.39 µM; in test [3], 5.11 µM; in [4], 26.1 µM; in test [5], 3.55 µM; in test [6] it was 8.02 µM. Besides, the GI50 is 0.762 µM in test [7], 5.11 µM in [8], 18 µM in [9] and 2.92 µM in test [10]. The TGI was greater than 100 µM in test [1]; 6.64 µM in test [2]; 26.9 µM in [3]; greater than 100 µM in [4]; 59.2 µM in test [5]; greater than 100 µM in test [6]. For the same molecule, the TGI in [7] was 10.2 µM; in [8], greater than 100 µM; in [9], greater than 100 µM; in test [10] it was greater than 100 µM.

With `COC(=O)C1=C(O)C(C(=O)OC)[C@@]2(O)[C@@H](C(=O)OC)C(c3ccc(OC(=O)C(CC(C)C)NC(C)=O)cc3)C[C@@H]1[C@@H]2C(=O)OC` (some centres not stated), the GI50 in [1] is 41.6 µM; in test [2], greater than 100 µM; in test [3] it was 46.6 µM; in test [4], 30 µM; in test [5], 39 µM; in [6] it was 38.3 µM. Further, the GI50 in test [7] is 43.9 µM; in test [8], greater than 100 µM; in [9], 43 µM; in [10], 33.9 µM. For the same molecule, the TGI in [1], in test [2], in [3], in test [4], in test [5] and in [6] was greater than 100 µM each time. Further, the TGI in [7], in [8], in [9] and in test [10] was greater than 100 µM throughout.

Take `O=[N+]([O-])O.[NH-]C1CCCCC1[NH-].[NH-]C1CCCCC1[NH-].[NH-]C1CCCCC1[NH-].[OH-].[OH-].[OH-].[Pt+4].[Pt+4].[Pt+4]` (configuration not stated): the GI50 in [1] is 0.241 µM; in test [2], 2.16 µM; in test [3], 0.631 µM; in [4] it was 4.01 µM; in test [5] it was 1.15 µM; in test [6] it was 0.319 µM. Further, the GI50 in test [7] is 1.09 µM; in test [8], 1.27 µM; in test [9] it was 1.37 µM; in [10], 0.756 µM. Moreover, the TGI in test [1] was 7.07 µM; in test [2], greater than 68.1 µM; in [3], 27.9 µM; in test [4], greater than 64.4 µM; in test [5] it was greater than 59.3 µM; in test [6], 31.3 µM. The TGI in [7] turned out to be 4.01 µM; in test [8], 20.4 µM; in [9], 27.5 µM; in test [10], 40.9 µM.

As to `CC(C)C[C@H](NC(=O)[C@@H](O)[C@H](N)Cc1ccccc1)C(=O)O`, the TGI in [1], in [2], in test [3], in test [4], in test [5] and in test [6] was greater than 100 µM each time. The TGI in test [7], in [8], in test [9] and in test [10] was greater than 100 µM each time.

In the case of `O=C(CN=Cc1cccs1)CSC(c1ccccc1)c1ccccc1`, the GI50 in [1] was 24.8 µM; in [2], 17.6 µM; in test [3], 11.7 µM; in test [4] it was 24.5 µM; in test [5], 24.9 µM; in [6], 21.7 µM. Also, the GI50 in test [7] is 18.9 µM; in test [8], 22.1 µM; in test [9], 24 µM; in [10], 17.5 µM. Also, the TGI in test [1] stood at 70.1 µM; in [2], 48.1 µM; in test [3], 24 µM; in test [4], 95.6 µM; in test [5], 88.8 µM; in [6] it was 76.1 µM. The TGI in test [7] was 41.9 µM; in test [8] it was 48 µM; in [9], 66 µM; in [10], 47.9 µM.

Take `CCCCCCCCCCCCCCCC(=O)OCC1OC(n2ccc(N)nc2=O)C(O)C1O` (configuration not stated): the TGI was greater than 40.6 µM in test [1]; greater than 97 µM in test [2]; greater than 100 µM in [3]; greater than 100 µM in [4]; greater than 100 µM in [5]; greater than 100 µM in [6]. Further, the TGI in test [7] is greater than 61.8 µM; in [8] it was greater than 100 µM; in test [9] it was greater than 100 µM; in test [10], greater than 100 µM.

Regarding `CC(C)(C)c1ccc(S(=O)(=O)N[C@H]2CC[C@H]3[C@@H]4CCc5cc(O)ccc5[C@H]4CC[C@]23C)cc1`, the GI50 in test [1] was 1.98 µM; in test [2], 2.09 µM; in [3] it was 1.85 µM; in test [4] it was 1.91 µM; in test [5], 2.23 µM; in test [6], 2.14 µM. The GI50 in test [7] is 2.31 µM; in test [8] it was 2.45 µM; in test [9] it was 1.75 µM; in test [10], 2.1 µM. Further, the TGI turned out to be 4.16 µM in test [1]; 3.95 µM in test [2]; 3.3 µM in test [3]; 4.13 µM in [4]; 5.21 µM in test [5]; 7.24 µM in test [6]. Further, the TGI in [7] worked out at 6.11 µM; in [8], 6.78 µM; in [9] it was 3.51 µM; in test [10], 7.57 µM.

Turning to `CC(C)(C)NCCC(O)c1cc(C(F)(F)F)nc2c(C(F)(F)F)cccc12` (configuration not stated), the TGI in [1] is 16.8 µM; in test [2] it was 20.4 µM; in test [3], 25.5 µM; in [4], 22.8 µM; in test [5], 15.2 µM; in [6] it was 13.5 µM. Besides, the TGI in test [7] was 27.5 µM; in test [8], 26.4 µM; in [9] it was 33.4 µM; in test [10], 20.6 µM.

Take `CC[C@@]1(OC(=O)CN(C)C)C(=O)OCc2c1cc1n(c2=O)Cc2cc3ccccc3nc2-1`: the TGI is 0.147 µM in test [1]; 2.15 µM and 1.73 µM in [2]; 6.3 µM in test [3]; greater than 100 µM in [4]; 4.33 µM and 7.12 µM in [6]; 0.389 µM and 0.179 µM in [7]. Besides, the TGI in test [8] was 1.12 µM and 1.31 µM; in test [9], 0.42 µM and 0.445 µM. Further, the GI50 in test [2] was 0.356 µM; in test [3] it was 0.288 µM; in test [4], 1.44 µM; in test [5], 0.0377 µM; in test [6], 0.042 µM; in test [7], 0.0282 µM. The GI50 in [8] is 0.131 µM; in test [10] it was 0.476 µM.
